Assay results published in BindingDB's records for doi:10.1016/j.chembiol.2011.01.012 (University of Luxembourg, 2011).

Key:
[1] = molecular target: Non-receptor tyrosine-protein kinase TYK2 (Homo sapiens, UniProt P29597); test: Enzyme Assay; conditions: pH 7.5; 30 °C
[2] = molecular target: Tyrosine-protein kinase JAK1 (Homo sapiens, UniProt P23458); test: Enzyme Assay; conditions: pH 7.5; 30 °C
Sequence of Tyrosine-protein kinase JAK1 (P23458 whole entry): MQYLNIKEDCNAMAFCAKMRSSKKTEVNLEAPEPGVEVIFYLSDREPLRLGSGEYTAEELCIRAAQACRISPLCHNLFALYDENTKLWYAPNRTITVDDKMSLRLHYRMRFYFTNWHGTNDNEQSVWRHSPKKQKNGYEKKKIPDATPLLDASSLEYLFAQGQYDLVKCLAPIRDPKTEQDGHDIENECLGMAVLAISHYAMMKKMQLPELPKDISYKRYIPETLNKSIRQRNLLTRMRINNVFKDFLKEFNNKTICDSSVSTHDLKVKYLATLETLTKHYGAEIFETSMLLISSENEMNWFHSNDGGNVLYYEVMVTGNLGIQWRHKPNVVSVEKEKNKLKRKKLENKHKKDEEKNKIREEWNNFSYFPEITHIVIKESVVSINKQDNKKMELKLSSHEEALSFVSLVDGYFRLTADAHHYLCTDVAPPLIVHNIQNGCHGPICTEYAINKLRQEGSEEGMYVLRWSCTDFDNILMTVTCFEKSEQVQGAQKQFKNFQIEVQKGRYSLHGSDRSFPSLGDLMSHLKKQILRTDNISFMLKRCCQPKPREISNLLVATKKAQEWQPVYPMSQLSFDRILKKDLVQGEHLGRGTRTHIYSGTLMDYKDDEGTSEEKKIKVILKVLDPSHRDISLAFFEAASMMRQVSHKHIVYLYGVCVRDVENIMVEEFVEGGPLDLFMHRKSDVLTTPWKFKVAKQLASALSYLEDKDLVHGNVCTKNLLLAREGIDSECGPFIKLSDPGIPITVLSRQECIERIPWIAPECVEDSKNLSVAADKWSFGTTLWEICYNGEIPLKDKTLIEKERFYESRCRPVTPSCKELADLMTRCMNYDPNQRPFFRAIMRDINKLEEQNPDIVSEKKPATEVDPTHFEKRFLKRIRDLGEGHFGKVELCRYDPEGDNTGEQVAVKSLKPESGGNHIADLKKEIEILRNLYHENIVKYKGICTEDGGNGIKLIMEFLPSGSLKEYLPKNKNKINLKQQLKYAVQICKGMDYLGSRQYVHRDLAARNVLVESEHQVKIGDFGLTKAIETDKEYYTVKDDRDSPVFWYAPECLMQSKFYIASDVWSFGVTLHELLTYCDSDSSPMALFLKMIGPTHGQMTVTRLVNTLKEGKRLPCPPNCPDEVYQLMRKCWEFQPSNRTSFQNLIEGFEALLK

Sequence of Non-receptor tyrosine-protein kinase TYK2 (P29597 whole entry): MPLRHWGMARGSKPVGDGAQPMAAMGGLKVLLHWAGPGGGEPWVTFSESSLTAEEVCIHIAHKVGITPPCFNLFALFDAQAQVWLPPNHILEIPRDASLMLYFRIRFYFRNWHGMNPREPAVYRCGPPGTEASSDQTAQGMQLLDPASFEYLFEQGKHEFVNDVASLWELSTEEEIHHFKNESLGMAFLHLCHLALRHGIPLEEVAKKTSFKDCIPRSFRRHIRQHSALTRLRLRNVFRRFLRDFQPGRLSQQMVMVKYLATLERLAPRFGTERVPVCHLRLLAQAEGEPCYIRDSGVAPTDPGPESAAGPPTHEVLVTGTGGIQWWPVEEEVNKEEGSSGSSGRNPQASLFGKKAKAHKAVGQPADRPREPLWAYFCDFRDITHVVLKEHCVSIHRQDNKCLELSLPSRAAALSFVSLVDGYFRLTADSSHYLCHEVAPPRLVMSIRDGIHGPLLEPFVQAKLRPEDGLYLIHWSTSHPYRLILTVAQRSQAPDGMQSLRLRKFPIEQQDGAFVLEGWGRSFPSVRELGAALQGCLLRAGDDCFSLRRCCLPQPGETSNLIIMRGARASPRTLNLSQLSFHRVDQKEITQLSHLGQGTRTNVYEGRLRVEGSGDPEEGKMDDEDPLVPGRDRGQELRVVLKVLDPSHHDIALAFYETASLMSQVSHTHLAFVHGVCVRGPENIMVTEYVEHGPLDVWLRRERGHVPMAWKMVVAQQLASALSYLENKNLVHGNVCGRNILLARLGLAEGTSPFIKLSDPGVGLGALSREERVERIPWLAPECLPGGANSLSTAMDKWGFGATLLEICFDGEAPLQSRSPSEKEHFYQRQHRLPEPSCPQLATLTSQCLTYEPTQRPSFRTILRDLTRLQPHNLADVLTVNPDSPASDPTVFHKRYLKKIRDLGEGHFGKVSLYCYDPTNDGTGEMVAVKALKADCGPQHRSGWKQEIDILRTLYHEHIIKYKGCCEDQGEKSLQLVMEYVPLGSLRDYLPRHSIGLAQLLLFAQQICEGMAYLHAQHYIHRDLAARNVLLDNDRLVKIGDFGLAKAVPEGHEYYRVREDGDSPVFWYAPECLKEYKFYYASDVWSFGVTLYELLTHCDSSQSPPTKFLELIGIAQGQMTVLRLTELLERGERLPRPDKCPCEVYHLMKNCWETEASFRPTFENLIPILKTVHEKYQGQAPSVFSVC

CC(C)(O)C(=O)N1CCN(c2ccc(C(F)(F)F)c(C3=C(c4c[nH]c5ccccc45)C(=O)NC3=O)c2)CC1 [NIBR3049]
IC50 [1]: 8.05 µM
IC50 [2]: 1.02 µM
